Source: patent US10398672B2, “Methods and compositions for targeting cancer stem cells” (Whitehead Institute for Biomedical Research, priority 2014, dated 2019)

Test system: NAMEC cells transformed with Ras
Conditions: mouse, in vivo

In the case of cholera toxin, the “loss of tumor-initiating ability compared to untreated NAMEC cells” value is reported as 100 fold.
